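Results reflect a 48-hour exposure of cells in 96-well plates to compound at five concentrations. The concentration for 50% growth inhibition is given as GI50.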 The source made the active and inactive calls. Cut-off read from the data, not from the text of the source: active = GI50 up to about 1.1 µM and inactive = higher.
How the values were obtained:
Test in all cases: NCI-60 cell line screen, 48 h
SNB-78 = tested on: SNB-78
HOP-18 = tested on: HOP-18
LXFL 529 = tested on: LXFL 529
DLD-1 = tested on: DLD-1
XF498 = tested on: XF498
DMS-273 = tested on: DMS-273
KM-20L2 = tested on: KM-20L2
M19-MEL = tested on: M19-MEL
RXF 631 = tested on: RXF 631

Compound | GI50 (SNB-78) | GI50 (HOP-18) | GI50 (LXFL 529) | GI50 (DLD-1) | GI50 (XF498) | GI50 (DMS-273) | GI50 (KM-20L2) | GI50 (M19-MEL) | GI50 (RXF 631)
CCOC(=O)NC(=O)c1cn(CCCCCCCCCCC(=O)NCCCN2CCN(CCCNC(=O)CCCCCCCCCCn3cc(C(=O)NC(=O)OCC)c(=O)[nH]c3=O)CC2)c(=O)[nH]c1=O | > 100 µM (inactive) | > 100 µM (inactive) | > 100 µM (inactive) | > 100 µM (inactive) | > 100 µM (inactive) | > 100 µM (inactive) | > 100 µM (inactive) | > 100 µM (inactive) | –
CCCCCCCCCC(=O)CC(=O)c1c(O)cccc1O | 40 µM (inactive) | 25.4 µM (inactive) | 38.8 µM (inactive) | 39.5 µM (inactive) | 15.3 µM (inactive) | 20.8 µM (inactive) | 33.8 µM (inactive) | 38.5 µM (inactive) | –
CC1=C(/C=C/C(C)=C/C2CC(N(C)C)=CC(=O)O2)C(C)(C)CCC1 (stereo not drawn) | 19.5 µM (inactive) | 13.6 µM (inactive) | 11.7 µM (inactive) | 15.3 µM (inactive) | 12.4 µM (inactive) | 13.4 µM (inactive) | – | 14.3 µM (inactive) | 13.1 µM (inactive)
COc1ccc(C(O)c2cc(OC)c(OC)c(OC)c2)cc1 (stereo not drawn) | 44.4 µM (inactive) | 39 µM (inactive) | 40.9 µM (inactive) | 38.2 µM (inactive) | – | 4.21 µM (inactive) | – | 21 µM (inactive) | 30.1 µM (inactive)
CC1=C(C(=O)Nc2ccccc2)C(c2ccc(C3C(C(=O)Nc4ccccc4)=C(C)NC(C)=C3C(=O)Nc3ccccc3)cc2)C(C(=O)Nc2ccccc2)=C(C)N1 | – | 8.22 µM (inactive) | 2.1 µM (inactive) | 2.38 µM (inactive) | 7.36 µM (inactive) | 2.62 µM (inactive) | 2.04 µM (inactive) | 3.5 µM (inactive) | –
Nc1ccc(/N=N/c2ccc(-c3ccc(/N=N/c4c(S(=O)(=O)O)cc5cc(S(=O)(=O)O)c(/N=N/c6ccc([N+](=O)[O-])cc6)c(N)c5c4O)cc3)cc2)c2cc(S(=O)(=O)O)ccc12 | > 100 µM (inactive) | – | > 100 µM (inactive) | > 100 µM (inactive) | > 100 µM (inactive) | > 100 µM (inactive) | > 100 µM (inactive) | > 100 µM (inactive) | –
c1cc(C2O[C@H]3CCCN3[C@@H]2c2ccncc2)ccn1 (stereo partly drawn) | > 100 µM (inactive) | – | > 100 µM (inactive) | > 100 µM (inactive) | > 100 µM (inactive) | > 100 µM (inactive) | > 100 µM (inactive) | > 100 µM (inactive) | –
COc1cc(/C=C(\C#N)C(N)=C(C#N)C#N)cc(O)c1O | > 100 µM (inactive) | – | > 100 µM (inactive) | > 100 µM (inactive) | > 100 µM (inactive) | > 100 µM (inactive) | > 100 µM (inactive) | > 100 µM (inactive) | –
COc1cc([C@@H]2c3cc4c(c(O)c3C[C@H]3COC(=O)[C@@H]32)OCO4)cc(OC)c1O | < 0.02 µM (active) | < 0.02 µM (active) | 0.00257 µM (active) | – | – | < 0.02 µM (active) | – | 0.237 µM (active) | –
CCOC(=O)C(C)c1cc(C2(C)OCCO2)c(C)o1 (stereo not drawn) | > 100 µM (inactive) | > 100 µM (inactive) | > 100 µM (inactive) | > 100 µM (inactive) | > 100 µM (inactive) | > 100 µM (inactive) | > 100 µM (inactive) | > 100 µM (inactive) | > 100 µM (inactive)
CNC(=S)/N=C(\N)N(C)C | > 100 µM (inactive) | > 100 µM (inactive) | > 100 µM (inactive) | > 100 µM (inactive) | > 100 µM (inactive) | > 100 µM (inactive) | > 100 µM (inactive) | > 100 µM (inactive) | –
Oc1c(-c2ccccc2)nc2ccccn12 | > 100 µM (inactive) | – | > 100 µM (inactive) | > 100 µM (inactive) | > 100 µM (inactive) | > 100 µM (inactive) | > 100 µM (inactive) | > 100 µM (inactive) | –
COc1ccccc1C1C(Cl)C(=O)N1NC(=O)Cc1ccccc1 (stereo not drawn) | > 100 µM (inactive) | 30.7 µM (inactive) | > 100 µM (inactive) | – | > 100 µM (inactive) | 43.3 µM (inactive) | 75.9 µM (inactive) | > 100 µM (inactive) | –
Nc1nccc2c1ncn2C1C=C(CO)C(O)C1O (stereo not drawn) | > 100 µM (inactive) | > 96.6 µM (inactive) | > 89.1 µM (inactive) | 63.4 µM (inactive) | > 46 µM (inactive) | 25.6 µM (inactive) | > 87.1 µM (inactive) | 62.5 µM (inactive) | 83.6 µM (inactive)
c1ccc(-c2csc3ncn4cnnc4c23)cc1 | > 100 µM (inactive) | 52 µM (inactive) | 92.9 µM (inactive) | 82.2 µM (inactive) | – | 72.8 µM (inactive) | > 100 µM (inactive) | > 100 µM (inactive) | 95.7 µM (inactive)
CCOC(=O)N(c1ccccc1)N(CC)C(=O)/C(C)=N/Nc1ccc([N+](=O)[O-])cc1 | 20.8 µM (inactive) | 19.7 µM (inactive) | 16.6 µM (inactive) | 15.4 µM (inactive) | 17.9 µM (inactive) | 15.6 µM (inactive) | 17.1 µM (inactive) | 17.5 µM (inactive) | –
C/C=C/C[C@@H](C)[C@@H](O)[C@H]1C(=O)N[C@@H](CC)C(=O)N(C)CC(=O)N(C)[C@@H](CC(C)C)C(=O)N[C@@H](C(C)C)C(=O)N(C)[C@@H](CC(C)C)C(=O)N[C@@H](C)C(=O)N[C@H](C)C(=O)N(C)[C@@H](CC(C)C)C(=O)N(C)[C@@H](CC(C)C)C(=O)N(C)[C@@H](C(C)C)C(=O)N1C [CYCLOSPORINE] | 4.98 µM (inactive) | 11.1 µM (inactive) | 6.89 µM (inactive) | 5.32 µM (inactive) | 3.96 µM (inactive) | 4.7 µM (inactive) | 2.97 µM (inactive) | 2.37 µM (inactive) | 1.98 µM (inactive)
C/C(=N\NC(N)=S)c1ccc(/C(C)=N/NC(N)=S)cc1 | – | > 100 µM (inactive) | > 100 µM (inactive) | > 100 µM (inactive) | > 100 µM (inactive) | – | > 100 µM (inactive) | > 100 µM (inactive) | > 100 µM (inactive)
COC(=O)C(CCC1(C)OCCO1)=[N+]=[N-] | > 100 µM (inactive) | > 100 µM (inactive) | > 100 µM (inactive) | > 100 µM (inactive) | > 100 µM (inactive) | > 100 µM (inactive) | > 100 µM (inactive) | – | > 100 µM (inactive)
Cc1c(C)c(CC(=O)N2CC2)c(C)c(C)c1CC(=O)N1CC1 | 13.7 µM (inactive) | 28.4 µM (inactive) | 14.1 µM (inactive) | 17.5 µM (inactive) | – | 2.18 µM (inactive) | 17.3 µM (inactive) | 12.9 µM (inactive) | –
Cc1cccc(NC(=O)CSc2nnc(-c3ccc(/N=C\c4ccc(Cl)cc4)cc3)o2)c1 | > 100 µM (inactive) | > 100 µM (inactive) | > 100 µM (inactive) | – | > 100 µM (inactive) | > 100 µM (inactive) | > 100 µM (inactive) | > 100 µM (inactive) | –
Nc1nc(-c2ccc(Cl)c([N+](=O)[O-])c2)cs1 | 52.5 µM (inactive) | 35.4 µM (inactive) | > 100 µM (inactive) | > 100 µM (inactive) | 27.5 µM (inactive) | > 100 µM (inactive) | > 100 µM (inactive) | > 100 µM (inactive) | > 100 µM (inactive)
COc1c(OC(C)=O)c(OC(C)=O)cc2c1-c1ccc(SC)c(=O)cc1C(NC(C)=O)CC2 (stereo not drawn) | 0.287 µM (active) | > 100 µM (inactive) | 0.368 µM (active) | 0.908 µM (active) | 1.04 µM (active) | 0.895 µM (active) | 0.7 µM (active) | 0.57 µM (active) | –
CCCCCCCCCCCCOC(=S)NCCCC | 34.4 µM (inactive) | 28.1 µM (inactive) | 28.1 µM (inactive) | 29.4 µM (inactive) | 16.4 µM (inactive) | 18.3 µM (inactive) | 18.7 µM (inactive) | 32.7 µM (inactive) | 20.7 µM (inactive)
O=C1O[C@@H](c2ccc3c(c2)OCO3)C2C(=O)O[C@@H](c3ccc4c(c3)OCO4)C12 (stereo partly drawn) | > 100 µM (inactive) | > 100 µM (inactive) | – | – | 25.8 µM (inactive) | > 100 µM (inactive) | > 100 µM (inactive) | > 100 µM (inactive) | > 100 µM (inactive)
CCOC(=O)[C@@]1(C)C=C2O[C@@H]3OC4(CCCCC4)O[C@@H]3C2=C2C(O)=CC=C(O)[C@]21C(=O)OC | > 68.1 µM (inactive) | > 68.1 µM (inactive) | > 68.1 µM (inactive) | > 68.1 µM (inactive) | > 68.1 µM (inactive) | > 68.1 µM (inactive) | > 68.1 µM (inactive) | > 68.1 µM (inactive) | > 68.1 µM (inactive)
CN(N=O)C(=O)NC(CCCCNC(=O)OCc1ccccc1)C(=O)OCc1ccccc1 (stereo not drawn) | 26.7 µM (inactive) | – | 28.5 µM (inactive) | 33.8 µM (inactive) | 13.2 µM (inactive) | 33.2 µM (inactive) | > 100 µM (inactive) | 27.1 µM (inactive) | 19.9 µM (inactive)

From ChEMBL document CHEMBL1201862, “PubChem BioAssay data set” (2004)
